Results as given in patent US11390894B2, “Biological processes for the production of aryl sulfates” (CysBio ApS, priority 2014, dated 2022).

Legend:
[1] = target: T1, SULT1A1 rat + CysDNCQ (Rattus norvegicus, UniProt P17988); experiment: Sulfation of phenolic compounds in vivo by E. coli strain expressing sulfotransferase with cysDNCQ; type: cell-based; conditions: M9, 1 mM IPTG, overnight 37° C.; start concentration per compound 61-287 μM
T1 construct: 1, 3, 4, 5, and 6 were cloned amplified from liver tissue cDNA (Zyagen) by PCR; expressed in transfected cells; host or cells: E. coli BL21(DE3)pLysS with pETDuet-1 (SULT1A1) and pRSFDuet-1 (cysDNCQ)
T1 sequence (P17988 whole entry): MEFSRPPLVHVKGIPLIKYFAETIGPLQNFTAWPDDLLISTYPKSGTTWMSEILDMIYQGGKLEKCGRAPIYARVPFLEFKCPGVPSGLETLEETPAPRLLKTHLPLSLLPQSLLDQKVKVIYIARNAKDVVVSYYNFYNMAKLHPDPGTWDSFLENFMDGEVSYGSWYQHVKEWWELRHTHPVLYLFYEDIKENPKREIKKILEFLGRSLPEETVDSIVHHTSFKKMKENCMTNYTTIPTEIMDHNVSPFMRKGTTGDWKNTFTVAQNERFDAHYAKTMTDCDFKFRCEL
Experimental: (§1) The concentration of p-courmaric acid (pHCA) and zosteric acid in the supernatant was quantified by high performance (HPLC) and compared to chemical standards. HPLC was done on a Thermo setup using a HS-F5 column and mobile phases: 5 mM ammonium formate pH 4.0 (A) and acetonitrile (B) at 1.5 mL min-1, using a gradient elution starting at 5% B. From 0.5 min after injection to 7 min, the fraction of B increased linearly from 5% to 60%, and between 9.5 min and 9.6 the fraction of B decreased back to 5%, and remaining there until 12 min. pHCA and zosteric acid were quantified by measuring absorbance at 277 nm.
(§2) To further test the range of substrates that can be sulfated, we used strains carrying plasmids expressing SULT1A1 from rat (Rattus norvegicus) and SULT1E1 from chicken (Gallus gallus domesticus) (Example 1) cloned into the expression vector pETDuet-1, and cysDNCQ from E. coli cloned into expression vector pRSFDuet-1 (Example 2). The plasmids were introduced into the E. coli expression strain BL21(DE3)pLysS as described previously, selecting for transformants with appropriate antibiotics, namely 34 μg mL^1 chloramphenicol for pLysS, 100 μg mL^−1 ampicillin for pETDuet-1-based vectors, and 100 μg mL^−1 kanamycin for pRSFDuet-1-based vectors. […] A control strain without a sulfotransferase gene or cysDNCQ operon was also examined.
(§3) The strains were precultured in 2×YT medium with appropriate antibiotics. 10 μL of these precultures were used to inoculate M9 media with 1 mM IPTG and none or a single substrate for sulfation. After overnight growth at 37° C., 300 rpm the supernatants were withdrawn and examined by HPLC as described in Example 1. The compounds were detected by UV absorbance.

[2] = test system: SULT1E1 from chicken; experiment: Sulfation of phenolic compounds in vivo by E. coli strain expressing sulfotransferase; type: cell-based, Gallus gallus domesticus; conditions: M9, 1 mM IPTG, overnight 37° C.; start concentration per compound 61-287 μM
Experimental: as §1, §2, §3

[3] = target: T2, SULT1A1 from rat (Rattus norvegicus, UniProt P17988); experiment: as above; type: cell-based; conditions: M9, 1 mM IPTG, overnight 37° C.; start concentration per compound 61-287 μM
T2 construct: 1, 3, 4, 5, and 6 were cloned amplified from liver tissue cDNA (Zyagen) by PCR; expressed in transfected cells; host or cells: E. coli BL21(DE3)pLysS, plasmid pETDuet-1
T2 sequence (P17988 whole entry): as above
Experimental: as §1, §2, §3

[4] = test system: E. coli MG1655; experiment: Toxicity of unsulfated or sulfated product: growth rates of E. coli; type: cell-based; conditions: M9 0.2% glucose, pH 7, 37° C.; 10-40 mM pHCA or 20 or 40 mM zosteric acid
Source text: All media preparations had been adjusted to pH 7. […] Filled squares represent growth rates in media with pHCA.

| Structure (SMILES) | percent reduction in concentration compared to the control strain, SULT1A1 + CysDNCQ [1] | percent reduction in concentration compared to the control strain, SULT1E1 [2] | percent reduction in concentration compared to the control strain, SULT1A1 [3] | toxicity to the cells (growth rates in exponential growth phase, FIG. 5) [4] |
| --- | --- | --- | --- | --- |
| O=C(O)C(=O)Cc1ccc(O)cc1 [4-Hydroxyphenyl pyruvic acid] | 64% | 100% | 47% |  |
| O=c1c(O)c(-c2ccc(O)c(O)c2)oc2cc(O)ccc12 [fisetin] | 100% | 98% | 98% |  |
| CC(=O)Nc1ccc(O)cc1 [4-acetamidophenol, reference compound] | 30% | 10% | 24% |  |
| O=C(O)c1ccc(O)cc1 [4-hydroxybenzoic acid] | 6% | 4% | 5% |  |
| COc1cc(/C=C/C(=O)O)ccc1O [Ferulic acid] | 100% | 67% | 72% |  |
| O=c1c(O)c(-c2ccc(O)c(O)c2)oc2cc(O)cc(O)c12 [Quercetin] | 81% | 74% | 75% |  |
| O=C(O)CCc1ccc(O)cc1 [3-(4-Hydroxyphenyl) propionic acid] | 7% | 1% | 3% |  |
| COc1cc(C(=O)O)ccc1O [Vanillic acid] | 39% | 0% | 33% |  |
| O=C(O)/C=C/c1ccc(O)cc1 [pHCA, p-coumaric acid] |  |  |  | toxic to the cells |
| O=c1cc(-c2ccc(O)cc2)oc2cc(O)cc(O)c12 [Apigenin] | 99% | 98% | 41% |  |
| O=c1cc(-c2ccc(O)c(O)c2)oc2cc(O)cc(O)c12 [Luteolin] | 37% | 0% | 27% |  |
